One data set deals with cells. In words: Cytotoxicity/Lactate Dehydrogenase assay. The settings on record: toxic or cause cell death; concentrations (uM) given. It is filed as cell-based. As to the method:
An appropriate number of cells are plated in four 96-well plates, one plate for “day 0” and three plates for days 1-3. Cells are treated with at least one compound of the present invention in varying concentrations with and without the apoptosis inducer cisplatin (2 μM) (“+cis” or “-cis”). Unteated cells are also assayed with and without cisplatin. After transfection, the plates are incubated at 37° C. overnight.
An appropriate number of cells are plated in four 96-well plates, one plate for “day 0” and three plates for days 1-3. Cells are treated with at least one compound of the present invention in varying concentrations. The negative control cells have normal media conditions, a duplicate set of wells is treated with the composition in which the compound is provided, but there is no added compound and the positive control cells are treated with the apoptosis inducer cisplatin (2 μM). All of the cells are transfected with a vector having a promoter that is responsive to apoptosis conditions. When apoptosis occurs, the promoter is turned on and the lactic dehydrogenase gene is activated and the enzyme protein is made and active. Activity is easily detected with a color change. After transfection, the plates are incubated at 37° C. overnight.
About 8 mls of warmed alpha MEM LDH lysis buffer (2% Triton X100) and about 8 mls of culture media (1/2 dilution) are combined. Two 96-well v-bottom plates are prepared, one labeled “lysis” and one labeled “supernatant.” To lyse the cells, about 200 μl Alpha MEM lysis buffer (diluted 1/2) is added to one test plate from which the supernatant has been removed and added to the plate labeled supernatant. After mixing, about 200 μl of lysed cells are transferred to the lysis plate. Both the lysis and supernatant plates are centrifuged at about 1600 rpm for about 10 min. After centrifugation, about 100 μl of both the supernatant or lysate is transferred to corresponding 96-well flat-bottomed plates.
The assay for cytotoxicity uses the Cytotoxicity Detection Kit (LDH) from Roche Diagnostics Corp. (Indianapolis, Ind.). Using the directions provided, the dye solution is mixed and added each well of the lysate and supernatant plate and incubated for up to 20-25 min at 15-25° C. in the dark.

For a further data set, the system named is TNF-α induced IL-6. In words: TNF-α-induced IL-6 production determined by IL-6 ELISA. The settings on record: for activity at 10 µM: Homo sapiens, 24 h. Type of data set: cell-based. In short, it runs like this:
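Human aortic endothelial cells grown to ≥90% confluence, then treated with compounds and stimuli in serum-free medium with 0.2% albumin. Secreted IL-6 in collected media measured by sandwich ELISA (2 ug/ml capture, 200 ng/ml biotinylated detection antibody, streptavidin-HRP), read at 450 nm.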
A general note: An ELISA detects its analyte on a solid surface through an enzyme-linked reagent.

Setting [1] is: Table 5, second part, column 1, class = % of control IL6 production, read-out: Inhibition of TNF-induced IL6, production.

This is an account of results in patent publication US7332489B2, “Methods and compositions of novel triazine compounds” (Reddy US Therapeutics, Inc., priority 2003, dated 2008).

Each structure is given as a SMILES string. Like-named read-outs stand apart in the source and are kept apart here.

Consider `COc1ccc(Nc2nc(NN3CCCCCC3)nc(N(C)C3CCNCC3)n2)cc1Cl`, for which the melting point (in general, the temperature of the solid-liquid transition) was found to be 81 °C.
The same measure, in the same setting: with `COc1ccc(Nc2nc(NC3CCCCCC3)nc(N3CCSCC3)n2)cc1Cl` the figure was 78 to 80 °C.
For the molecule `CCN1CCCC1CNc1nc(Nc2cnc3ccccc3c2)nc(NC2CCCCCC2)n1` (stereo not shown) [Compound 3, N^2-cycloheptyl-N^4-[(1-ethyl-2-pyrrolidinyl)methyl]-N^6-(3-quinolinyl)-1,3,5-triazine-2,4,6-triamine], the Toxicity entry in the data set with cells is reported as “toxic”. Further, in the data set with TNF-α induced IL-6 (setting [1]), the activity at 10 µM lay within 0 to 25%.
With `CCOC(=O)c1ccc(Nc2nc(NCC3CCCN3CC)nc(NC3CCCCCC3)n2)cc1` (stereo not shown) [Compound 14, Ethyl 4-[(4-(cycloheptylamino)-6-{[(1-ethyl-2-pyrrolidinyl)methyl]amino}-1,3,5-triazin-2-yl)-amino]benzoate], in the data set with cells, the Toxicity entry is “toxic”.
For the molecule `CCN1CCCC1CNc1nc(Nc2cccc(F)c2)nc(NC2CCCCCC2)n1` (stereo not shown) [Compound 16, N^2-cycloheptyl-N^4-[(1-ethyl-2-pyrrolidinyl)methyl]-N^6-(3-fluorophenyl)-1,3,5-triazine-2,4,6-triamine], the Toxicity result in the data set on cells is given as “toxic”.
The same measure, in the same setting: with `CCN1CCCC1CNc1nc(Nc2ccccc2Cl)nc(NC2CCCCCC2)n1` (stereo not shown) [Compound 21, N^2-(2-chlorophenyl)-N^4-cycloheptyl-N^6-[(1-ethyl-2-pyrrolidinyl)methyl]-1,3,5-triazine-2,4,6-triamine] the entry was “toxic”; with `CCN1CCCC1CNc1nc(Nc2ccccc2Br)nc(NC2CCCCCC2)n1` (stereo not shown) [Compound 22, N^2-(2-bromophenyl)-N^4-cycloheptyl-N^6-[(1-ethyl-2-pyrrolidinyl)methyl]-1,3,5-triazine-2,4,6-triamine], “toxic”; with `CCN1CCCC1CNc1nc(Nc2ccc(Oc3ccccc3)cc2)nc(NC2CCCCCC2)n1` (stereo not shown) [Compound 36, N^2-cycloheptyl-N^4-[(1-ethyl-2-pyrrolidinyl)methyl]-N^6-(4-phenoxyphenyl)-1,3,5-triazine-2,4,6-triamine], “toxic”.
Same read-out and setting: under `CCN1CCCC1CNc1nc(NC2CCCCCC2)nc(N(C)c2ccc(OC(F)(F)F)cc2)n1` (stereo not shown) [Compound 47, N^2-cycloheptyl-N^4-[(1-ethyl-2-pyrrolidinyl)methyl]-N^6-methyl-N^6-[4-(trifluoromethoxy)phenyl]-1,3,5-triazine-2,4,6-triamine] stands “toxic”; under `CCN1CCCC1CNc1nc(Nc2ccc(OC)c(F)c2)nc(NC2CCCCCCC2)n1` (stereo not shown) [Compound 54, N^2-cyclooctyl-N^4-[(1-ethyl-2-pyrrolidinyl)methyl]-N^6-(3-fluoro-4-methoxyphenyl)-1,3,5-triazine-2,4,6-triamine], “toxic”; under `CCN1CCCC1CNc1nc(Nc2ccc(OC)c(F)c2)nc(N2CCCC3CCCCC32)n1` (stereo not shown) [Compound 59, N^2-[(1-ethyl-2-pyrrolidinyl)methyl]-N^4-(3-fluoro-4-methoxyphenyl)-N^6-octahydro-1(2H)-quinolinyl-1,3,5-triazine-2,4-diamine], “toxic”.
On to `COc1ccc(Nc2nc(NCCN(C)C)nc(NC3CCCCCC3)n2)cc1F` [Compound 93, N^2-cycloheptyl-N^4-[2-(dimethylamino)ethyl]-N^6-(3-fluoro-4-methoxyphenyl)-1,3,5-triazine-2,4,6-triamine], for which, in the data set on cells, the Toxicity entry is given as “toxic”. The activity at 10 µM in the data set with TNF-α induced IL-6 (Table 5, first part, class = % of control IL6 production, read-out: Inhibition of TNF-induced IL6 production) fell in the range of 0 to 25%; in the data set on TNF-α induced IL-6 (setting [1]), 0 to 25%.
`CCCCN(CCC)c1nc(Nc2ccc(OC)c(Cl)c2)nc(N(C)C2CCN(C)CC2)n1` [Compound 111, N-Butyl-N′-(3-chloro-4-methoxy-phenyl)-N″-methyl-N″-(1-methyl-piperidin-4-yl)-N-propyl-[1,3,5]triazine-2,4,6-triamine]: in the data set on cells, the Toxicity entry is listed as “Toxic by eye at 50and 10 uM noblunt/round justdeath”. Besides, the “% IL6 production compare to TNF stimulation of IL6 (100%), @ 5 uM” value in the data set with TNF-α induced IL-6 (HAEC, 5 uM compound, TNF stimulation = 100%) is recorded as 46%. For the same molecule, the activity at 10 µM with TNF-α induced IL-6 (read-out: % IL6 production compare to TNF stimulation of IL6 (100%), Compds tested @ 10 uM HAEC, IL6) was over 90%; in the data set with TNF-α induced IL-6 (read-out: Inhibition of TNF-induced IL6 production) it was 75 to 100%.
With `COc1ccc(Nc2nc(Cl)nc(OCC3CCCCC3)n2)cc1F` [Compound 114, (4-Chloro-6-cyclohexylmethoxy-[1,3,5]triazin-2-yl)-(3-fluoro-4-methoxy-phenyl)-amine], the melting point is 98 °C.
`COc1ccc(Nc2nc(Nc3ccc(OC)c(F)c3)nc(OCC3CCCCC3)n2)cc1F` [Compound 115, 6-Cyclohexylmethoxy-N,N′-bis-(3-fluoro-4-methoxy-phenyl)-1,3,5-triazine-2,4-diamine] gave a melting point of 181 °C.
`CCN1CCCC1CNc1nc(Nc2ccc(OC)c(F)c2)nc(OCC2CCCCC2)n1` (stereo not shown) [Compound 116, 6-Cyclohexylmethoxy-N-(1-ethyl-pyrrolidin-2-ylmethyl)-N′-(3-fluoro-4-methoxy-phenyl)-[1,3,5]triazine-2,4-diamine] yielded a melting point of 59 °C.
Still for that read-out and setting: under `COc1ccc(Nc2nc(Cl)nc(OCC3CCCCC3)n2)cc1Cl` [Compound 117, (4-Chloro-6-cyclohexylmethoxy-[1,3,5]triazin-2-yl)-(3-chloro-4-methoxy-phenyl)-amine] stands 114 °C.
Still for that read-out and setting: with `COc1ccc(Nc2nc(Nc3ccc(OC)c(Cl)c3)nc(OCC3CCCCC3)n2)cc1Cl` [Compound 118, N,N′-Bis-(3-chloro-4-methoxy-phenyl)-6-cyclohexylmethoxy-1,3,5-triazine-2,4-diamine] the figure was 188 °C.
`COc1ccc(Nc2nc(OCC3CCCCC3)nc(N(C)C3CCN(C)CC3)n2)cc1Cl` [Compound 119, N-(3-Chloro-4-methoxy-phenyl)-6-cyclohexylmethoxy-N′-methyl-N′-(1-methyl-piperidin-4-yl)-[1,3,5]triazine-2,4-diamine]: the Toxicity result in the data set on cells is recorded as “toxic”.
`COc1ccc(Nc2nc(Nc3ccc(OC)c(Cl)c3)nc(NC3CCCCCC3)n2)cc1Cl` [Compound 122, N,N′-Bis-(3-chloro-4-methoxy-phenyl)-N″-cycloheptyl-[1,3,5]triazine-2,4,6-triamine] had a melting point of 183 °C.
The same measure, in the same setting: with `COc1ccc(Nc2nc(Cl)nc(Cl)n2)cc1F` [Compound 124, (4,6-Dichloro-[1,3,5]triazin-2-yl)-(3-fluoro-4-methoxy-phenyl)-amine] the figure was 134 °C.
On the same count and under the same terms, under `COc1ccc(Nc2nc(Cl)nc(NCC3CCCCC3)n2)cc1F` [Compound 125, 6-Chloro-N-cyclohexylmethyl-N′-(3-fluoro-4-methoxy-phenyl)-[1,3,5]triazine-2,4-diamine] stands 156 °C.
The same measure, in the same setting: under `CCN1CCCC1CNc1nc(NCC2CCCCC2)nc(Nc2ccc(OC)c(F)c2)n1` (stereo not shown) [Compound 126, N-Cyclohexylmethyl-N′-(1-ethyl-pyrrolidin-2-ylmethyl)-N″-(3-fluoro-4-methoxy-phenyl)-[1,3,5]triazine-2,4,6-triamine] stands 72 °C.
As to `CCN1CCCC1CNc1nc(Nc2ccc(OC)c(Cl)c2)nc(NC2CCCCCC2)n1` (stereo not shown) [Compound 136, N^2-(3-chloro-4-methoxy-phenyl)-N^4-cycloheptyl-N^6-(1-ethyl-pyrrolidin-2-ylmethyl)-1,3,5-triazine-2,4,6-triamine], the Toxicity result with cells was “Nothing but celldebris at 3 uM verytoxic”.
For `COc1ccc(Nc2nc(NC3CCCCCC3)nc(N(C)C3CCNCC3)n2)cc1Cl` [Compound 146, N^2-(3-chloro-4-methoxy-phenyl)-N^4-cycloheptyl-N^6-methyl-N^6-piperidin-4-yl-1,3,5-triazine-2,4,6-triamine], the melting point was 114 to 116 °C.
Same read-out and setting: with `COc1ccc(Nc2nc(O)nc(NC3CCCCCC3)n2)cc1Cl` [Compound 147, 4-(3-Chloro-4-methoxy-phenylamino)-6-cycloheptylamino-1,3,5-triazin-2-ol] the figure was over 310 °C; with `COc1ccc(Nc2nc(NC3CCCCCC3)nc(OC3CCCN(C(C)=O)C3)n2)cc1Cl` (stereo not shown) [Compound E20, 1-[3-{4-(3-chloro-4-methoxyanilino)-6-cycloheptylamino-1,3,5-triazine-2-yloxy}piperidino]-1-ethanone], 138 to 140 °C.
Same read-out and setting: under `COc1ccc(Nc2nc(NC3CCCCCC3)nc(OC(C)C)n2)cc1Cl` [Compound E21, N^2-(3-chloro-4-methoxyphenyl)-N^4-cycloheptyl-6-isopropoxy-1,3,5-triazine-2,4-diamine] stands 136 to 138 °C.
